The subject of series [1] is human embryonic kidney cells (HEK-293T). As to the kind of experiment: MTT cytotoxic activity assay, HEK-293T healthy cells, 72 h. Format: cell-based. The conditions noted are these: HEK-293T healthy cell line. From the text:
(§1) Cancer treatment often damages healthy cells and tissues. Every treatment has important and diverse side effects; these depend mainly on the type and extent of treatment, are not the same for everyone, and may even vary from one treatment to another in the same person. While most cancer patients receiving chemotherapy lose hair during the treatment process, other side effects vary depending on the type of drug. Therefore, the discovery of new drugs with side effects lower than those of the chemotherapeutic agents used in treatment has become an important focus of cancer research. In the present study, the cytotoxic activities of new compounds (1–18) and cisplatin were tested in prostate and colon cancer cell lines and healthy embryonic kidney cell line for 72 h.
To determine whether all of the prepared substances had selectivity for healthy cells, the compounds were tested against HEK-293T cells at the same concentrations as those applied to cancer cells. […] Changes in the cell viability ratio depending on concentrations of the tested compounds (1–18) and cisplatin are given below (Figure 3).
(§2) The PC3 and DLD-1 cell lines were purchased from the American Type Culture Collection. The PC3, DLD-1, and HEK-293T cells were seeded in 96-well plates at a density of 5 × 10^3 cells/well for cytotoxic activity studies.[36]−[38] Cells were exposed to compounds at concentrations of 300, 150, 75, and 37.5 μM after 24 h. The 50 μL (5 mg/mL) amount of MTT stock solution was added to wells after 72 h and incubated for a further 2 h. The absorbance values were measured by using an Epoch 2 ELISA plate reader at 590 nm.
In general terms: Tetrazolium assays rely on reduction of a dye to a coloured formazan, in cell work by metabolically active cells.

Series [2] concerns human prostate cancer cells (PC3). Kind of series: MTT cytotoxic activity assay, PC3 cells, 72 h. Format: cell-based.
Source text: as §1, §2

Series [3] deals with human colon cancer cells (DLD-1). As to the kind of experiment: MTT cytotoxic activity assay, DLD-1 cells, 72 h. The class given is cell-based. Conditions: DLD-1 cell line.
Source text: as §1, §2

The mark [4] stands for this setting: Homo sapiens, PC-3, PC3 cell line.

Bounds are passed on as bounds.

Molecule `O=Cc1ccccc1OS(=O)(=O)c1ccc(C(F)(F)F)cc1` [Compound 1] returned a melting point of 83 to 84 °C. For the same molecule, half-maximal inhibition in series [1] (IC50) required 19.5 ± 1.57 µM. The molecule also gave a half-maximal inhibitory concentration (IC50) in series [2] (setting [4]) of 14.3 ± 1.87 µM. In series [3] (Homo sapiens), the IC50 worked out at 22.5 ± 2.6 µM.

Take `O=Cc1cccc(OS(=O)(=O)c2ccc(C(F)(F)F)cc2)c1` [Compound 2]: the melting point was in the range of 79 to 80 °C. The same molecule had an IC50 in series [1] of 60 ± 4.81 µM. Further, the half-inhibitory concentration (IC50) in series [2] (setting [4]) is 24.5 ± 2.09 µM. For the same molecule, in series [3] (Homo sapiens), the IC50 came out at 41.2 ± 3.94 µM.

As for `O=Cc1ccc(OS(=O)(=O)c2ccc(C(F)(F)F)cc2)cc1` [Compound 3], the melting point lay within 110 to 111 °C. Also, inhibition in series [1] was half-maximal at 89.26 ± 0.17 µM (IC50). The IC50 in series [2] (setting [4]) is 76.6 ± 3.55 µM. The molecule also returned an IC50 in series [3] (Homo sapiens) of 115 ± 5.78 µM.

For `COc1cccc(C=O)c1OS(=O)(=O)c1ccc(C(F)(F)F)cc1` [Compound 4], the IC50 in series [1] was found to be 35.3 ± 1.15 µM; in series [2] (setting [4]), 10.3 ± 0.8 µM; in series [3] (Homo sapiens), 13.5 ± 1.64 µM.

In the case of `COc1ccc(C=O)c(OS(=O)(=O)c2ccc(C(F)(F)F)cc2)c1` [Compound 5], the IC50 in series [1] worked out at 38.6 ± 2.81 µM; in series [2] (setting [4]) it was 11.2 ± 0.94 µM; in series [3] (Homo sapiens) it was 19.3 ± 2.71 µM.

As for `COc1ccc(C=O)cc1OS(=O)(=O)c1ccc(C(F)(F)F)cc1` [Compound 6], the 50% inhibitory concentration (IC50) in series [1] was 91 ± 2.26 µM; in series [2] (setting [4]), 16 ± 1.71 µM; in series [3] (Homo sapiens) it was 17.8 ± 0.53 µM.

For `COc1cc(C=O)ccc1OS(=O)(=O)c1ccc(C(F)(F)F)cc1` [Compound 7], the melting point lay in the range of 112 to 113 °C. Also, the midpoint of inhibition in series [1], the IC50, lay at 110 ± 5.97 µM. The molecule further came in with an IC50 in series [2] (setting [4]) of 71.6 ± 3.46 µM. Further, in series [3] (Homo sapiens), the IC50 was 74 ± 4.34 µM.

Turning to `CCN(CC)c1ccc(C=O)c(OS(=O)(=O)c2ccc(C(F)(F)F)cc2)c1` [Compound 8], the melting point was in the range of 114 to 116 °C. In series [1], the IC50 worked out at 40.8 ± 5.68 µM. Besides, the IC50 in series [2] (setting [4]) is 28.8 ± 1.85 µM. The molecule also showed an IC50 in series [3] (Homo sapiens) of 24.7 ± 1.9 µM.

For the molecule `O=Cc1c(OS(=O)(=O)c2ccc(C(F)(F)F)cc2)ccc2ccccc12` [Compound 9], the melting point was in the range of 129 to 131 °C. The molecule also had an IC50 in series [1] of 34.7 ± 2.21 µM. Further, in series [2] (setting [4]), the IC50 stood at 14.8 ± 1.03 µM. Further, the IC50 in series [3] (Homo sapiens) worked out at 17.6 ± 0.62 µM.

As for `O=C(NN=Cc1ccccc1OS(=O)(=O)c1ccc(C(F)(F)F)cc1)c1ccncc1` [Compound 10], the values for the concentration for half-maximal inhibition (IC50) in series [1], in series [2] (setting [4]) and in series [3] (Homo sapiens) were 52.2 ± 3.52 µM, 139 ± 5.82 µM and 17.9 ± 0.51 µM, respectively.

`O=C(NN=Cc1cccc(OS(=O)(=O)c2ccc(C(F)(F)F)cc2)c1)c1ccncc1` [Compound 11] showed a melting point of 189 to 190 °C. The molecule further had an IC50 in series [1] of 245 ± 5.79 µM. The molecule also had an IC50 in series [2] (setting [4]) of 80.1 ± 4.59 µM. Besides, inhibition in series [3] (Homo sapiens) was half-maximal at 144 ± 4.18 µM (IC50).

The molecule `O=C(N/N=C/c1ccc(OS(=O)(=O)c2ccc(C(F)(F)F)cc2)cc1)c1ccncc1` [Compound 12] showed a melting point of 208 to 209 °C. Besides, the concentration for half-maximal inhibition (IC50) in series [1] was above 300 µM. Further, in series [2] (setting [4]), the IC50 is above 300 µM. This molecule also showed an IC50 in series [3] (Homo sapiens) above 300 µM.

On to `COc1cccc(C=NNC(=O)c2ccncc2)c1OS(=O)(=O)c1ccc(C(F)(F)F)cc1` [Compound 13], for which the melting point lay in the range of 198 to 199 °C. In series [1], this molecule showed an IC50 above 300 µM. In series [2] (setting [4]), this molecule yielded an IC50 of 214 ± 6.48 µM. This molecule also returned an IC50 in series [3] (Homo sapiens) of 78.8 ± 3.15 µM.

`COc1ccc(C=NNC(=O)c2ccncc2)c(OS(=O)(=O)c2ccc(C(F)(F)F)cc2)c1` [Compound 14] displayed a melting point of 180 to 181 °C. For the same molecule, in series [1], the IC50 worked out at 26.6 ± 2.62 µM. Moreover, half-maximal inhibition in series [2] (setting [4]) (IC50) required 16.5 ± 1.54 µM. In addition, inhibition in series [3] (Homo sapiens) was half-maximal at 28.4 ± 2.81 µM (IC50).

Regarding `COc1ccc(C=NNC(=O)c2ccncc2)cc1OS(=O)(=O)c1ccc(C(F)(F)F)cc1` [Compound 15], the figures for the IC50 in series [1], in series [2] (setting [4]) and in series [3] (Homo sapiens) were 166 ± 6.71 µM, 97.4 ± 4.85 µM and 63.8 ± 5.32 µM, respectively.

The molecule `COc1cc(C=NNC(=O)c2ccncc2)ccc1OS(=O)(=O)c1ccc(C(F)(F)F)cc1` [Compound 16] registered a melting point of 192 to 193 °C. The IC50 in series [1] came to 183 ± 2.72 µM. In addition, the IC50 in series [2] (setting [4]) was 121 ± 5.71 µM. The molecule also returned an IC50 in series [3] (Homo sapiens) of 72.8 ± 3.13 µM.

`CCN(CC)c1ccc(C=NNC(=O)c2ccncc2)c(OS(=O)(=O)c2ccc(C(F)(F)F)cc2)c1` [Compound 17] yielded a melting point of 141 to 142 °C. The same molecule showed a 50% inhibitory concentration (IC50) in series [1] of 132 ± 5.46 µM. This molecule registered an IC50 in series [2] (setting [4]) of 57.6 ± 1.83 µM. For the same molecule, the IC50 in series [3] (Homo sapiens) was 110 ± 5.09 µM.

For the molecule `O=C(NN=Cc1c(OS(=O)(=O)c2ccc(C(F)(F)F)cc2)ccc2ccccc12)c1ccncc1` [Compound 18], the results for the IC50 in series [1], in series [2] (setting [4]) and in series [3] (Homo sapiens) were 15.75 ± 0.11 µM, 17.05 ± 0.09 µM and 37.4 ± 4.63 µM, respectively.

Take `N.N.[Cl][Pt][Cl]` [cisplatin, reference compound]: the IC50 in series [2] (PC3 cell line) amounted to 8.8 ± 0.51 µM; in series [3], 26.7 ± 2.78 µM.

Broadly, the IC50 is the point on the concentration scale where inhibition reaches its midpoint. Read a low IC50 as greater potency in that assay. By melting point is commonly meant the temperature of the solid-liquid transition.
